Measurements published in US20250025048A1, “Liver Viscoelastic Changes and Biomarkers for Cancer Invasion” (The Board of Trustees of the Leland Stanford Junior …, priority 2021, published 2025).

Tests used:
[1] = tested on: livers from HiAD-fed mice; experiment: Atomic force microscopy (AFM) indentation of livers, hysteresis between approach and retraction curves; type: in vivo; conditions: 60 mg/kg daily, i.p., FIG. 1B
Excerpt: FIGS. 1A-1B. ECM viscoelasticity increases in an advanced glycation end product (AGE) and hepatocyte RAGE-dependent manner. Schematic presentation of the methods used to assess mechanical responses to indentation by an atomic force microscope (AFM) probe. Force-distance curve is generated when the probe indents the sample until a defined force is reached (blue, approach curve) and the cantilever is retracted (red, retraction curve). The hysteresis between the approach and retraction curves indicates sample viscosity (FIG. 1A).
As shown in FIGS. 1A-1B, extracellular matrix (ECM) viscoelasticity increases in an AGE and hepatocyte RAGE-dependent manner. Mechanical responses to indentation were assessed by an atomic force microscope (AFM) probe. A force-distance curve is generated when the probe indents the sample until a defined force is reached and the cantilever is retracted. The hysteresis between the approach and retraction curves indicates sample viscosity (FIG. 1A).

[2] = tested on: livers from HiAD-fed mice; experiment: Rheometry of livers (dynamic time sweep and stress relaxation test); type: in vivo; conditions: 600 s; for storage modulus (stiffness, G'): 2% constant strain, 1 radian/s, FIG. 3B; for faster relaxation times (high viscoelasticity) of HiAD livers, stress relaxation test: initial 10% strain, FIGS. 3C-3D
Procedure: FIGS. 3A-3D. […] The plate was lowered to touch the sample and 100˜300 Pa of initial force was applied. Dynamic time sweep test (2% constant strain, oscillation frequency 1 radian/s, measurements taken for 600 s) was done first to collect the shear storage modulus (stiffness, G′) and loss modulus (G″) (FIG. 3A). […] Stress relaxation test was performed for 600 s with an initial 10% strain. […] Stress was normalized by the initial stress (FIG. 3C). Quantification of timescale at which the stress is relaxed to half its original value (τ1/2), from the tests in FIG. 3C (FIG. 3D). (N=2-4, Data are represented as mean±SEM; one way ANOVA followed by post-hoc Tukey test *p<0.05, **p<0.01, ***p<0.001).
The plate was lowered to touch the sample and 100˜300 Pa of initial force was applied. Dynamic time sweep test (2% constant strain, oscillation frequency 1 radian/s, measurements taken for 600 s) was done first to collect the shear storage modulus (stiffness, G′) and loss modulus (G″) (FIG. 3A). […] A stress relaxation test was performed for 600 s with an initial 10% strain. […] Stress was normalized by the initial stress (FIG. 3C). Quantification of timescale at which the stress is relaxed to half its original value (τ1/2), from the tests in FIG. 3C (FIG. 3D). (N=2-4, Data are represented as mean±SEM; one way ANOVA followed by post-hoc Tukey test *p<0.05, **p<0.01, ***p<0.001).

Structure (SMILES)	hysteresis area between approach and retraction force curves (sample viscosity) [1]	storage modulus (stiffness, G') [2]	faster relaxation times (high viscoelasticity) of HiAD livers, stress relaxation test [2]
Cc1ncc(CO)c(CN)c1O [PM, pyridoxamine]	reduced	did not change	reversed
Cc1sc[n+](CC(=O)c2ccccc2)c1C.[Cl-] [alagebrium, 3-phenacyl-4,5-dimethylthiazolium chloride]	–	did not change	reversed
